Laboratory results: patent publication US6777412B2 (priority 1990, dated 2004)
Like-named read-outs stand apart in the source and are kept apart here. Marks after values point to notes of the source that are not given here.

Experiments:
Assay type in all cases: in vivo
Puccinia recondita = assay: Foliar fungal disease test on plants: Puccinia recondita (Pr)
Procedure, shortened: (§1)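 Potted plants treated by foliar spray to maximum retention (100 ppm a.i. unless stated) plus root drench (~40 ppm a.i. in dry soil), with 0.05% Tween 20 on cereals, one or two days before spore-suspension inoculation.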

Erysiphe graminis hordei = assay: Foliar fungal disease test on plants: Erysiphe graminis hordei (Egh)
Septoria nodorum = assay: Foliar fungal disease test on plants: Septoria nodorum (Sn)
Procedure: (§2) The compounds were tested against a variety of foliar fungal diseases of plants. The technique employed was as follows.
(§3) The plants were grown in John Innes Potting Compost (No.1 or 2) in 4 cm diameter minipots. The test compounds were formulated either by bead milling with aqueous Dispersol T or as a solution in acetone or acetone/ethanol which was diluted to the required concentration immediately before use. For the foliage diseases, the formulations (100 ppm active ingredient except where otherwise indicated) were sprayed onto the foliage and applied to the roots of the plants in the soil. The sprays were applied to maximum retention and the root drenches to a final concentration equivalent to approximately 40 ppm a.i. in dry soil. Tween 20, to give a final concentration of 0.05%, was added when the sprays were applied to cereals.
(§4) For most of the tests the compound was applied to the soil (roots) and to the foliage (by spraying) one or two days before the plant was inoculated with the disease. An exception was the test on Erysiphe graminis in which the plants were inoculated 24 hours before treatment. Foliar pathogens were applied by spray as spore suspensions onto the leaves of test plants. After inoculation, the plants were put into an appropriate environment to allow infection to proceed and then incubated until the disease was ready for assessment. The period between inoculation and assessment varied from four to fourteen days according to the disease and environment.
(§5) The disease control vas recorded by the following grading:
(§6) 3=trace-5% of disease on untreated plants
(§7) 2=6-25% of disease on untreated plants
(§8) 1=26-59% of disease on untreated plants
(§9) 0=60-100% of disease on untreated plants

Pyricularia oryzae = tested on: Pyricularia oryzae
Thanatephorus cucumeris = assay: Foliar fungal disease test on plants: Thanatephorus cucumeris (Tc)
Procedure: as §2, §3, §4, §5, §6, §7, §8, §9
Tc Thanatephorus cucumeris

Venturia inaequalis = assay: Foliar fungal disease test on plants: Venturia inaequalis (Vi)
Procedure, shortened: as §1

Plasmopara viticola = assay: Foliar fungal disease test on plants: Plasmopara viticola (Pv)
Procedure, shortened: as §1

[1] = tested on: Phytophthora infestans lycopersici
[2] = tested on: Erysiphe graminis tritici; assay: Foliar fungal disease test on plants: Erysiphe graminis tritici (Egt)
Procedure: as §2, §3, §4, §5, §6, §7, §8, §9
Egt Erysiphe graminis tritici

[3] = 100 ppm active ingredient foliar spray plus root drench (approx. 40 ppm a.i. in dry soil), one or two days before inoculation
[4] = 100 ppm active ingredient foliar spray plus root drench (approx. 40 ppm a.i. in dry soil), plants inoculated 24 hours before treatment

SMILES	disease control grading, Pr (Puccinia recondita) (Puccinia recondita; 10 ppm foliar application only)	disease control grading, Egh (Erysiphe graminis hordei) (Erysiphe graminis hordei; 10 ppm foliar application only)	disease control grading, Sn (Septoria nodorum) (Septoria nodorum; 10 ppm foliar application only)	disease control grading, Po (Pyricularia oryzae) (Pyricularia oryzae; 10 ppm foliar application only)	disease control grading, Tc (Thanatephorus cucumeris) (Thanatephorus cucumeris; 10 ppm foliar application only)	disease control grading, Vi (Venturia inaegualis) (Venturia inaequalis; 10 ppm foliar application only)	disease control grading, Pv (Plasmopara viticola) (Plasmopara viticola; 10 ppm foliar application only)	disease control grading, Pil (Phytophthora infestans lycopersici) ([1]; 10 ppm foliar application only)	disease control grading, Pr (Puccinia recondita) (Puccinia recondita; [3])	disease control grading, Egh (Erysiphe graminis hordei) (Erysiphe graminis hordei; [4])	disease control grading, Sn (Septoria nodorum) (Septoria nodorum; [3])	disease control grading, Po (Pyricularia oryzae) (Pyricularia oryzae; [3])	disease control grading, Tc (Thanatephorus cucumeris) (Thanatephorus cucumeris; [3])	disease control grading, Vi (Venturia inaegualis) (Venturia inaequalis; [3])	disease control grading, Pv (Plasmopara viticola) (Plasmopara viticola; [3])	disease control grading, Pil (Phytophthora infestans lycopersici) [1, 3]	disease control grading, Egt (Erysiphe graminis tritici) ([2]; 10 ppm foliar application only)	disease control grading, Egt (Erysiphe graminis tritici) [2, 4]
CO/C=C(/C(=O)OC)c1ccccc1Oc1cc(OCc2ccccc2C#N)ncn1 [389 of Table I]	4^a (4=no disease)	4^a (4=no disease)	4^a (4=no disease)	4^a (4=no disease)	4^a (4=no disease)	4^a (4=no disease)	4^a (4=no disease)	0^a (0=60-100% of disease on untreated plants)										
CO/C=C(/C(=O)OC)c1ccccc1Oc1cc(OCCOc2ccc(C#N)cc2)ncn1 [390 of Table I]									4 (4=no disease)	3 (3=trace-5% of disease on untreated plants)	3 (3=trace-5% of disease on untreated plants)	4 (4=no disease)	1 (1=26-59% of disease on untreated plants)	4 (4=no disease)	4 (4=no disease)	0 (0=60-100% of disease on untreated plants)		
CO/C=C(/C(=O)OC)c1ccccc1Oc1cc(OCc2c(F)c(F)c(F)c(F)c2F)ncn1 [388 of Table I]									4 (4=no disease)	4 (4=no disease)	4 (4=no disease)	4 (4=no disease)	4 (4=no disease)	4 (4=no disease)	4 (4=no disease)	4 (4=no disease)		
CO/C=C(/C(=O)OC)c1ccccc1Oc1cc(O/N=C(\C)c2ccc[nH]2)ncn1 [407 of Table I]	0^a (0=60-100% of disease on untreated plants)		0^a (0=60-100% of disease on untreated plants)	1^a (1=26-59% of disease on untreated plants)	0^a (0=60-100% of disease on untreated plants)	3^a (3=trace-5% of disease on untreated plants)	4^a (4=no disease)	0^a (0=60-100% of disease on untreated plants)									1^a (1=26-59% of disease on untreated plants)	
CO/C=C(/C(=O)OC)c1ccccc1Oc1cc(OCc2ccco2)ncn1 [320 of Table I]									4 (4=no disease)		4 (4=no disease)	3 (3=trace-5% of disease on untreated plants)	4 (4=no disease)	4 (4=no disease)	4 (4=no disease)	4 (4=no disease)		4 (4=no disease)
CO/C=C(/C(=O)OC)c1ccccc1Oc1cc(OCCSc2ccccc2C#N)ncn1 [393 of Table I]									4 (4=no disease)	4 (4=no disease)	4 (4=no disease)	4 (4=no disease)	4 (4=no disease)	0 (0=60-100% of disease on untreated plants)	4 (4=no disease)	4 (4=no disease)		
